Assay results: patent US11008345B2, “Boron-containing small molecules” (Anacor Pharmaceuticals, Inc., priority 2010, dated 2021)
Structures can show the parent of a compound that is named as a salt. Where two headings read alike, the source gives them in different places.

Columns and labels:
[1] = tested on: M. tuberculosis strain Erdman; type: in vivo; details: day 24, C57BL/6 GKO mice
[2] = tested on: M. tuberculosis strain Erdman; type: in vivo; details: C57BL/6 GKO mice; for log 10 CFU for lungs: day 22, lungs; for log 10 CFU for spleens: day 22, spleens

Q: `CCOc1ccc(Cl)c2c1B(O)O[C@@H]2CN.Cl` (single isomer, unassigned) [L] was tested. Which “log 10 CFU/lung” value ([1]; 100 mg/kg QD PO) did it give?
A: Its value is 3.08 (0.06) log 10 CFU/lung.

Q: `CCOc1ccc(F)c2c1B(O)O[C@@H]2CN.Cl` (single isomer, unassigned) [N] was tested. Which “log 10 CFU for lungs” value ([2]; 100 mg/kg BID PO) did it give?
A: The value was 5.51 (0.09) log 10 CFU.

Q: And the “log 10 CFU for spleens” value ([2]; 100 mg/kg BID PO)?
A: Its value is 2.42 (0.48) log 10 CFU.

Q: `CCOc1ccc(F)c2c1B(O)OC2CN.Cl` (stereo not shown) [C, 3-Aminomethyl-7-ethoxy-4-fluoro-3H-benzo[c][1,2]-oxaborol-1-ol; Hydrochloride] was tested. Which “log 10 CFU/lung” value ([1]; 100 mg/kg BID PO) did it give?
A: Its value is 5.06 (0.26) log 10 CFU/lung.

Q: `CCOc1ccc(Br)c2c1B(O)OC2CN` (stereo not shown) [E, 3-(Aminomethyl)-4-bromo-7-ethoxybenzo[c][1,2]oxaborol-1(3H)-ol 2,2,2-trifluoroacetate Salt] was tested. Which “log 10 CFU/lung” value ([1]; 100 mg/kg BID PO) did it give?
A: The value was 2.73 (0.05) log 10 CFU/lung.

Q: And the “log 10 CFU for lungs” value ([2]; 100 mg/kg QD PO)?
A: The value was 5.27 (0.12) log 10 CFU.

Q: And the “log 10 CFU for spleens” value ([2]; 100 mg/kg QD PO)?
A: Its value is 4.27 (0.25) log 10 CFU.

Q: Which results are given for `NNC(=O)c1ccncc1` [INH, Isoniazid, reference compound]?
A: log 10 CFU for lungs ([2]; 25 mg/kg QD PO): 5.29 (0.13) log 10 CFU; log 10 CFU for spleens ([2]; 25 mg/kg QD PO): 4.27 (0.25) log 10 CFU

Q: Which “log 10 CFU/lung” value ([1]; 10 mg/kg QD PO) does the source give for `CO[C@H]1/C=C/O[C@@]2(C)Oc3c(C)c(O)c4c(O)c(c(/C=N/N5CCN(C)CC5)c(O)c4c3C2=O)NC(=O)/C(C)=C\C=C\[C@H](C)[C@H](O)[C@@H](C)[C@@H](O)[C@@H](C)[C@H](OC(C)=O)[C@@H]1C` [rifampicin, reference compound] here?
A: Its value is 6.16 (0.10) log 10 CFU/lung.
